One may read the IC50 as the point on the concentration scale where inhibition reaches its midpoint. A low value points to greater potency.

Where a name gives a salt, the structure may show the parent alone.

In this experiment the target is kinase domain of IRE1 alpha (His-tagged kinase dead construct KR, AA G547-L977, D688N) (Homo sapiens (Human), UniProt O75460, D688N). In words: IRE1α TR-FRET competition binding assay. The following applies: competition with Kinase Tracer 236, 0.1 μM; one hour at room temperature. A digest of the protocol: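 Compound displacement of an ATP-site fluorescent tracer (0.1 μM final) measured by TR-FRET after 1 h at room temperature. Protein, a His-tagged D688N kinase/RNase construct from Sf9 cells (0.006 μM final), was pre-bound 1 h at 4° C to Eu anti-His antibody (0.002 μM) in pH 7.5 HEPES buffer.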
Sequence of kinase domain of IRE1 alpha (His-tagged kinase dead construct KR, AA G547-L977, D688N) (O75460 547-977 D688N): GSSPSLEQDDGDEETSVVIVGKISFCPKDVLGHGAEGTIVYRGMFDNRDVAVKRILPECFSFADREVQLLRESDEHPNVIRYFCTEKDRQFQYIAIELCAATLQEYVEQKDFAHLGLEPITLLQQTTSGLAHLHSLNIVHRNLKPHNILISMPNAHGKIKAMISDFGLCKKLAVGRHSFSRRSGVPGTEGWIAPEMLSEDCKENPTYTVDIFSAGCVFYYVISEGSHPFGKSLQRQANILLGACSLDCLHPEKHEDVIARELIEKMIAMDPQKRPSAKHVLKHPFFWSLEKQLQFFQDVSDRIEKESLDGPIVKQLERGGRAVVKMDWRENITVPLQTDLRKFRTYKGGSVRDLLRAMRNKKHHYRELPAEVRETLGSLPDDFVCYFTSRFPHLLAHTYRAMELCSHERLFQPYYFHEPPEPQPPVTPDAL

`CN=S(=O)(Cc1ccccc1)Nc1ccc(Oc2ncccc2-c2ccnc(N[C@H]3CCCNC3)n2)c(F)c1F` (stereo partly drawn) [Compound 273, N-(2,3-difluoro-4-((3-(2-(((S)-piperidin-3-yl)amino)pyrimidin-4-yl)pyridin-2-yl)oxy)phenyl)-N′-methyl-1-phenylmethanesulfonimidamide] gave an IC50 of 410000 pM.

The compound `CN=S(=O)(Cc1ccccc1)Nc1ccc(Oc2ncccc2-c2ccnc(N[C@H]3CCCNC3)n2)c(F)c1F` (stereo partly drawn) [Compound 274, N-(2,3-difluoro-4-((3-(2-(((S)-piperidin-3-yl)amino)pyrimidin-4-yl)pyridin-2-yl)oxy)phenyl)-N′-methyl-1-phenylmethanesulfonimidamide] yielded an IC50 of 400000 pM.

In the case of `C[C@@]1(F)CNC[C@@H](Nc2nccc(-c3cccnc3Oc3cc(F)c(NS(=O)(=O)Cc4ccccc4F)c(F)c3F)n2)C1` [Compound 275, 1-(2-Fluorophenyl)-N-(2,3,6-trifluoro-4-((3-(2-(((3S,5S)-5-fluoro-5-methylpiperidin-3-yl)amino)pyrimidin-4-yl)pyridin-2-yl)oxy)phenyl)methanesulfonamide], the IC50 was determined as 230 pM.

`O=C(Nc1ccc(Oc2ncccc2-c2ccnc(N[C@@H]3CNC[C@@H](F)C3)n2)cc1)Nc1cccc(C(F)(F)F)c1` [Compound 276, 1-(4-((3-(2-(((3S,5S)-5-Fluoropiperidin-3-yl)amino)pyrimidin-4-yl)pyridin-2-yl)oxy)phenyl)-3-(3-(trifluoromethyl)phenyl)urea] came in with a half-maximal inhibitory concentration (IC50) of 180000 pM.

On to `Cc1cc(Oc2ncccc2-c2ccnc(N[C@@H]3CNC[C@@](C)(F)C3)n2)c(F)c(F)c1NS(=O)(=O)Cc1ccccc1` [Compound 279, N-(2,3-Difluoro-4-((3-(2-(((3S,5S)-5-fluoro-5-methylpiperidin-3-yl)amino)pyrimidin-4-yl)pyridin-2-yl)oxy)-6-methylphenyl)-1-phenylmethanesulfonamide], for which the IC50 worked out at 230 pM.

`Cc1cc(Oc2ncccc2-c2ccnc(N[C@@H]3CNC[C@@H](F)C3)n2)c(F)c(F)c1NS(=O)(=O)Cc1ccccc1` [Compound 280, N-(2,3-Difluoro-4-((3-(2-(((3S,5S)-5-fluoropiperidin-3-yl)amino)pyrimidin-4-yl)pyridin-2-yl)oxy)-6-methylphenyl)-1-phenylmethanesulfonamide] had an IC50 of 310 pM.

The compound `C[C@@]1(F)CNC[C@@H](Nc2nccc(-c3cccnc3Oc3cc(F)c(NS(=O)(=O)Cc4ccc(F)cc4F)c(F)c3F)n2)C1` [Compound 281, 1-(2,4-Difluorophenyl)-N-(2,3,6-trifluoro-4-((3-(2-(((3S,5S)-5-fluoro-5-methylpiperidin-3-yl)amino)pyrimidin-4-yl)pyridin-2-yl)oxy)phenyl)methanesulfonamide] had a 50% inhibitory concentration (IC50) of 340 pM.

In turn, `C[C@@]1(F)CNC[C@@H](Nc2nccc(-c3cccnc3Oc3cc(F)c(NS(=O)(=O)Cc4c(F)cccc4F)c(F)c3F)n2)C1` [Compound 282, 1-(2,6-Difluorophenyl)-N-(2,3,6-trifluoro-4-((3-(2-(((3S,5S)-5-fluoro-5-methylpiperidin-3-yl)amino)pyrimidin-4-yl)pyridin-2-yl)oxy)phenyl)methanesulfonamide] came in with an IC50 of 270 pM.

`Cc1cc(NS(=O)(=O)Cc2c(F)cccc2F)c(F)c(F)c1Oc1ncccc1-c1ccnc(N[C@@H]2CNC[C@@H](F)C2)n1` [Compound 283, N-(2,3-Difluoro-4-((3-(2-(((3S,5S)-5-fluoropiperidin-3-yl)amino)pyrimidin-4-yl)pyridin-2-yl)oxy)-5-methylphenyl)-1-(2,6-difluorophenyl)methanesulfonamide] showed an IC50 of 410 pM.

`Cc1ccc(CS(=O)(=O)Nc2c(F)cc(Oc3ncccc3-c3ccnc(N[C@@H]4CNC[C@@](C)(F)C4)n3)c(F)c2F)cc1` [Compound 284, 1-p-Tolyl-N-(2,3,6-trifluoro-4-((3-(2-(((3S,5S)-5-fluoro-5-methylpiperidin-3-yl)amino)pyrimidin-4-yl)pyridin-2-yl)oxy)phenyl)methanesulfonamide] gave an IC50 of 150 pM.

Consider `CN1CCN(Cc2ccc(NC(=O)Nc3ccc(Oc4ncccc4-c4ccnc(N[C@@H]5CNC[C@@H](F)C5)n4)cc3)cc2C(F)(F)F)CC1` [Compound 285, 1-(4-((3-(2-(((3S,5S)-5-Fluoropiperidin-3-yl)amino)pyrimidin-4-yl)pyridin-2-yl)oxy)phenyl)-3-(4-((4-methylpiperazin-1-yl)methyl)-3-(trifluoromethyl)phenyl)urea hydrochloride], for which the IC50 amounted to 8900 pM.

As to `CN1CCN(Cc2ccc(NC(=O)Nc3cccc(Oc4ncccc4-c4ccnc(N[C@@H]5CNC[C@@H](F)C5)n4)c3)cc2C(F)(F)F)CC1` [Compound 286, 1-(3-((3-(2-(((3S,5S)-5-Fluoropiperidin-3-yl)amino)pyrimidin-4-yl)pyridin-2-yl)oxy)phenyl)-3-(4-((4-methylpiperazin-1-yl)methyl)-3-(trifluoromethyl)phenyl)urea hydrochloride], the IC50 was 260000 pM.

Turning to `Cc1ccccc1CS(=O)(=O)Nc1c(F)cc(Oc2ncccc2-c2ccnc(N[C@@H]3CNC[C@@](C)(F)C3)n2)c(F)c1F` [Compound 290, 1-o-Tolyl-N-(2,3,6-trifluoro-4-((3-(2-(((3S,5S)-5-fluoro-5-methylpiperidin-3-yl)amino)pyrimidin-4-yl)pyridin-2-yl)oxy)phenyl)methanesulfonamide], the 50% inhibitory concentration (IC50) was found to be 400 pM.

Consider `COc1cccc(CS(=O)(=O)Nc2c(F)cc(Oc3ncccc3-c3ccnc(N[C@@H]4CNC[C@@](C)(F)C4)n3)c(F)c2F)c1` [Compound 291, 1-(3-Methoxyphenyl)-N-(2,3,6-trifluoro-4-((3-(2-(((3S,5S)-5-fluoro-5-methylpiperidin-3-yl)amino)pyrimidin-4-yl)pyridin-2-yl)oxy)phenyl)methanesulfonamide], for which the IC50 amounted to 280 pM.

`Cc1c(Oc2ncccc2-c2ccnc(N[C@@H]3CNC[C@@](C)(F)C3)n2)cc(F)c(NS(=O)(=O)Cc2ccccc2)c1F` [Compound 292, N-(2,6-Difluoro-4-((3-(2-(((3S,5S)-5-fluoro-5-methylpiperidin-3-yl)amino)pyrimidin-4-yl)pyridin-2-yl)oxy)-3-methylphenyl)-1-phenylmethanesulfonamide] registered a half-maximal inhibitory concentration (IC50) of 330 pM.

For the compound `Cc1c(Oc2ncccc2-c2ccnc(N[C@@H]3CNC[C@@H](F)C3)n2)cc(F)c(NS(=O)(=O)Cc2c(F)cccc2F)c1F` [Compound 293, N-(2,6-Difluoro-4-((3-(2-(((3S,5S)-5-fluoropiperidin-3-yl)amino)pyrimidin-4-yl)pyridin-2-yl)oxy)-3-methylphenyl)-1-(2,6-difluorophenyl)methanesulfonamide], the IC50 came to 410 pM.

The compound `COc1cc(Oc2ncccc2-c2ccnc(N[C@@H]3CNC[C@@H](F)C3)n2)cc(F)c1NS(=O)(=O)Cc1ccccc1` [Compound 296, N-(2-Fluoro-4-((3-(2-(((3S,5S)-5-fluoropiperidin-3-yl)amino)pyrimidin-4-yl)pyridin-2-yl)oxy)-6-methoxyphenyl)-1-phenylmethanesulfonamide] came in with an IC50 of 14000 pM.

`Cc1ccc(CS(=O)(=O)Nc2cc(C)c(Oc3ncccc3-c3ccnc(N[C@@H]4CNC[C@@](C)(F)C4)n3)c(F)c2F)cc1` [Compound 297, N-(2,3-Difluoro-4-((3-(2-(((3S,5S)-5-fluoro-5-methylpiperidin-3-yl)amino)pyrimidin-4-yl)pyridin-2-yl)oxy)-5-methylphenyl)-1-(p-tolyl)methanesulfonamide] yielded an IC50 of 280 pM.

In turn, `COc1ccc(CS(=O)(=O)Nc2c(F)cc(Oc3ncccc3-c3ccnc(N[C@@H]4CNC[C@@](C)(F)C4)n3)c(F)c2F)cc1` [Compound 304, 1-(4-Methoxyphenyl)-N-(2,3,6-trifluoro-4-((3-(2-(((3S,5S)-5-fluoro-5-methylpiperidin-3-yl)amino)pyrimidin-4-yl)pyridin-2-yl)oxy)phenyl)methanesulfonamide] gave a half-maximal inhibitory concentration (IC50) of 230 pM.

The compound `Cc1ccc(CS(=O)(=O)Nc2c(C)cc(Oc3ncccc3-c3ccnc(N[C@@H]4CNC[C@@](C)(F)C4)n3)c(F)c2F)cc1` [Compound 305, N-(2,3-Difluoro-4-((3-(2-(((3S,5S)-5-fluoro-5-methylpiperidin-3-yl)amino)pyrimidin-4-yl)pyridin-2-yl)oxy)-6-methylphenyl)-1-(p-tolyl)methanesulfonamide] registered an IC50 of 210 pM.

The compound `CCCS(=O)(=O)Nc1c(F)cc(Oc2ncccc2-c2ccnc(N[C@H]3CC[C@H](N(C)C)CC3)n2)c(F)c1F` [Compound 309, N-(4-((3-(2-(((1r,4r)-4-(Dimethylamino)cyclohexyl)amino)pyrimidin-4-yl)pyridin-2-yl)oxy)-2,3,6-trifluorophenyl)propane-1-sulfonamide] yielded an IC50 of 1100 pM.

`CN(C)[C@H]1CC[C@H](Nc2nccc(-c3cccnc3Oc3cc(F)c(NS(=O)(=O)CCC(C)(F)F)c(F)c3F)n2)CC1` [Compound 310, N-(4-((3-(2-(((1r,4r)-4-(Dimethylamino)cyclohexyl)amino)pyrimidin-4-yl)pyridin-2-yl)oxy)-2,3,6-trifluorophenyl)-3,3-difluorobutane-1-sulfonamide] returned a concentration for half-maximal inhibition (IC50) of 320 pM.

Regarding `Cc1ccc(CS(=O)(=O)Nc2cc(F)c(Oc3ncccc3-c3ccnc(N[C@@H]4CNC[C@@](C)(F)C4)n3)c(C)c2F)cc1` [Compound 311, N-(2,5-Difluoro-4-((3-(2-(((3S,5S)-5-fluoro-5-methylpiperidin-3-yl)amino)pyrimidin-4-yl)pyridin-2-yl)oxy)-3-methylphenyl)-1-(p-tolyl)methanesulfonamide], the IC50 was 290 pM.

As for `CS(=O)(=O)c1ccc(CS(=O)(=O)Nc2c(F)cc(Oc3ncccc3-c3ccnc(N[C@@H]4CNC[C@@H](F)C4)n3)c(F)c2F)cc1` [Compound 312, 1-(4-(Methylsulfonyl)phenyl)-N-(2,3,6-trifluoro-4-((3-(2-(((3S,5S)-5-fluoropiperidin-3-yl)amino)pyrimidin-4-yl)pyridin-2-yl)oxy)phenyl)methanesulfonamide], the IC50 was found to be 140 pM.

The values are drawn from patent US12071425B2 (Genentech, Inc., priority 2018, dated 2024).
